Results on 4 molecules are retold here after patent US6740641B2 (priority 2001, dated 2004).

Common to all, as to assay: biochemical
For assay [1], the target named is T1, recombinant mu-opioid receptor expressed in CHO-K1 cells (Homo sapiens, UniProt P35372).
T1 construct: purchased Receptor Biology Inc; host or cells: CHO-K1
The class given is binding. The settings on record: for selectivity for mu opioid receptors relative to delta and kappa opioid receptors: from Ki data of Table 4.

Assay [2] has as its target T2, recombinant kappa opiod receptor expressed in HEK 293 cells (Homo sapiens, UniProt P41145).
T2 construct: purchased Receptor Biology Inc; host or cells: HEK 293
The class given is binding.

Assay [3] addresses T3, recombinant delta opiod receptor expressed in CHO-K1 cells (Homo sapiens, UniProt P41143).
T3 construct: purchased Receptor Biology Inc., Beltsville, Md; host or cells: CHO-K1
Particulars: 0.2 nM [3H]-naltrindole, Table 1; read-out: Delta-Receptor Binding Affinity Ki.

Where [4] appears, read: 0.2 nM [3H]-diprenorphine, Table 3, read-out: Mu-Receptor Binding Affinity Ki.
Where [5] appears, read: 0.15 nM [3H]-bremazocine, Table 2, read-out: Kappa-Receptor Binding Affinity Ki.

Read-outs that look alike come from different tables or passages of the source.

T1 sequence (P35372 whole entry): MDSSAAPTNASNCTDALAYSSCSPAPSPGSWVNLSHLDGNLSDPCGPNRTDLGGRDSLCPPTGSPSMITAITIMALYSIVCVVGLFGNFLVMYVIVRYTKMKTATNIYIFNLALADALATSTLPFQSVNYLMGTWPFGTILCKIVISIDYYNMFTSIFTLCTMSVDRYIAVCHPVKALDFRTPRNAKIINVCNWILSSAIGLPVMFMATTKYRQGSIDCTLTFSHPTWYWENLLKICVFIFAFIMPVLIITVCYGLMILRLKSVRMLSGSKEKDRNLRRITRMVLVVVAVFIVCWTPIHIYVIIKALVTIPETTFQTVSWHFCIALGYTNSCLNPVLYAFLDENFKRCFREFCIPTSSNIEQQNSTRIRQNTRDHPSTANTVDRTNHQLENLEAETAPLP
T2 sequence (P41145 whole entry): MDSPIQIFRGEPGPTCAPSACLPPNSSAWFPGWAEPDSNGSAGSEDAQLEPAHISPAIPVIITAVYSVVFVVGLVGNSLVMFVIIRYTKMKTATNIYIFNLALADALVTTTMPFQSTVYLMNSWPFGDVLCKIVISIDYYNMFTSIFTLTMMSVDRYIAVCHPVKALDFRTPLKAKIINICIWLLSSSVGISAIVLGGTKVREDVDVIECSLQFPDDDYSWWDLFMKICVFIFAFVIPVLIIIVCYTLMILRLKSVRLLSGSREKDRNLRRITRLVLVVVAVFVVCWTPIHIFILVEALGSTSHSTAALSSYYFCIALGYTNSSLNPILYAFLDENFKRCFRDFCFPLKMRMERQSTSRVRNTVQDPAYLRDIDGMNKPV
T3 sequence (P41143 whole entry): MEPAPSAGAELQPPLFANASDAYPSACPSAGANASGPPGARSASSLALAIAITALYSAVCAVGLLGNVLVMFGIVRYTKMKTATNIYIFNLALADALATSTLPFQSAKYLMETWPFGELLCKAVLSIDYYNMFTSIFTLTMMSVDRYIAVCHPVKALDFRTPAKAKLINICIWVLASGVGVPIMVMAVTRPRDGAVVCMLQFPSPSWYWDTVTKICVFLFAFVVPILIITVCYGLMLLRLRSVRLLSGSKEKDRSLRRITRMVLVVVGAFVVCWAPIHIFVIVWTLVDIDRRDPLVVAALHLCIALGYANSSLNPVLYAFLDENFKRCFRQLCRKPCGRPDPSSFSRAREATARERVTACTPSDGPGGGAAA

As for `CN1CCC23c4c5ccc(O)c4O[C@H]2[C@H](OC2OC(CO)C(O)C(O)C2O)CCC3C1C5` (stereo partly drawn) [Dihydroisomorphine-6-glucoside, 6-O-Glucosyldihydroisomorphine], the “mu selectivity compared with morphine sulfate” value in assay [1] is listed as “higher than that of morphine sulfate”. The Ki turned out to be 4.7 nM in assay [1] (setting [4]), 440 nM in assay [2] (setting [5]) and 868 nM in assay [3]. Also, the “selectivity for mu opioid receptors relative to delta and kappa opioid receptors” value in assay [1] is “high selectivity for mu opioid receptors”.
Regarding `CN1CC[C@]23c4c5ccc(O)c4O[C@H]2[C@@H](O)CC[C@H]3[C@H]1C5` [Dihydromorphine, reference compound], the Ki in assay [1] was 0.39 nM.
In the case of `CN1CC[C@]23c4c5ccc(OC6O[C@H](CO)[C@@H](O)[C@H](O)[C@H]6O)c4O[C@H]2C(=O)CC[C@H]3[C@H]1C5` (stereo partly drawn) [Hydromorphone-3-glucoside, 3-O-Glucosylhydromorphone], the “mu selectivity compared with morphine sulfate” value in assay [1] is recorded as “higher than that of morphine sulfate”. Moreover, the Ki in assay [1] (setting [4]) was 51 nM; in assay [2] (setting [5]) it was 2400 nM; in assay [3], 4500 nM. For the same molecule, the “selectivity for mu opioid receptors relative to delta and kappa opioid receptors” value in assay [1] is “high selectivity for mu opioid receptors”.
In the case of `Oc1ccc2c3c1O[C@H]1c4oc5ccccc5c4C[C@@]4(O)[C@@H](C2)N(CC2CC2)CC[C@]314` [Naltriben, reference compound], the Ki in assay [2] worked out at 2.4 nM.
